Data reported in patent US11401286B2 (Tetra Discovery Partners, LLC, priority 2012, dated 2022).
Counter-ions that a name gives are not always drawn.

Biological target: PDE4D7 (Homo sapiens (Human), UniProt Q08499)
Conditions: read-out: PDE4D7 IC50

PDE4D7, sequence (Q08499 other isoform, or with tags, fused parts or gaps): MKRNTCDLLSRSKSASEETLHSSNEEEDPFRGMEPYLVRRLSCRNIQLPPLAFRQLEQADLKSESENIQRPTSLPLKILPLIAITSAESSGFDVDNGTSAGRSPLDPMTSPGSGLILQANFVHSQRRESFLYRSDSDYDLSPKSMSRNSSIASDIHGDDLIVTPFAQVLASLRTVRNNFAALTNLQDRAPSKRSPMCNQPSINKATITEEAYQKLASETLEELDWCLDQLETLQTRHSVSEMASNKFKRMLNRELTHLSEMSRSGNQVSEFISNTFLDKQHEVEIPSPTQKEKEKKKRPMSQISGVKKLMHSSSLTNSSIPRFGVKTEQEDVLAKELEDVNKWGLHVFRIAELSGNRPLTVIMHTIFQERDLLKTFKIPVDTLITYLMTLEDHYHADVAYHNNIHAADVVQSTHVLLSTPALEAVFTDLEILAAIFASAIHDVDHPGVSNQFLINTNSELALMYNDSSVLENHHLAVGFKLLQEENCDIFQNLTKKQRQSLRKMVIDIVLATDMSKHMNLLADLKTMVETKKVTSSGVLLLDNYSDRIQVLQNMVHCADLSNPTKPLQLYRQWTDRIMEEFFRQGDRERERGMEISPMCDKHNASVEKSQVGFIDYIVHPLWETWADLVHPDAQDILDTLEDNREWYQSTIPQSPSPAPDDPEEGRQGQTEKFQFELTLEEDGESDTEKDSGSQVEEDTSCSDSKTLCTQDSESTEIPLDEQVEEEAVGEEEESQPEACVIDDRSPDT

Q: With `NC(=O)Cc1ccc(S(=O)(=O)c2cc(-c3cccc(Cl)c3)nc3c2CCC3)cc1` [Example 267, 2-(4-((2-(3-chlorophenyl)-6,7-dihydro-5H-cyclopenta[b]pyridin-4-yl)sulfonyl)phenyl)acetamide] as the compound, how does the IC50 read?
A: > 1 µM

Q: For `CCc1cc(Nc2ccc(CCO)cc2)nc(-c2cccc(Cl)c2)n1` [Example 191, 2-(4-((2-(3-chlorophenyl)-6-ethylpyrimidin-4-yl)amino)phenyl)ethanol], which IC50 is on record?
A: < 1 µM

Q: For `COC(=O)Cc1ccc(Nc2cc(-c3cccc(Cl)c3)nc3c2CCC3)cn1` [Example 89, Methyl 2-(5-((2-(3-chlorophenyl)-6,7-dihydro-5H-cyclopenta[b]pyridin-4-yl)amino)pyridin-2-yl)acetate hydrochloride], which IC50 is on record?
A: > 1 µM

Same assay, conditions: read-out: PDE4D7 IC50; PDE4D7 without asterisk

Q: For `OCCc1ccc(Nc2nc(-c3cccc(Cl)c3)nc3c2SCCC3)cc1` [Example 272, 2-(4-((2-(3-chlorophenyl)-7,8-dihydro-6H-thiopyrano[3,2-d]pyrimidin-4-yl)amino)phenyl)ethanol], which IC50 is on record?
A: < 1 µM

Q: Which IC50 does the source give for `NC(=O)Cc1ccc(Nc2cc(C3CC3)nc(-c3cccc(Cl)c3)n2)cc1` [Example 207, 2-(4-((2-(3-Chlorophenyl)-6-cyclopropylpyrimidin-4-yl)amino)phenyl)acetamide] here?
A: < 1 µM

Q: With `OCCc1ccc(Nc2cc(-c3ccc(F)c(Cl)c3)nc3c2CCC3)cc1` [Example 151, 2-(4-((2-(3-Chloro-4-fluorophenyl)-6,7-dihydro-5H-cyclopenta[b]pyridin-4-yl)amino)phenyl)ethanol hydrochloride] as the compound, how does the IC50 read?
A: > 1 µM

Q: With `CCc1cc(Cc2ccc(CC(N)=O)cc2)nc(C2CCCC2)n1` [Example 226, 2-(4-((2-Cyclopentyl-6-ethylpyrimidin-4-yl)methyl)phenyl)acetamide] as the compound, how does the IC50 read?
A: < 1 µM

Q: `CCc1c(C)nc(-c2ccc(Cl)s2)nc1Nc1ccc(CC(=O)NC#N)cc1` [Example 301, 2-[4-[[2-(5-Chloro-2-thienyl)-5-ethyl-6-methyl-pyrimidin-4-yl]amino]phenyl]-N-cyano-acetamide] was tested. Which IC50 did it give?
A: > 1 µM

Q: With `CC(C)c1nc(Nc2ccc(CC(=O)O)cc2)nc(-c2ccc(Cl)s2)n1` [Example 25, 2-(4-((4-(5-chlorothiophen-2-yl)-6-isopropyl-1,3,5-triazin-2-yl)amino)phenyl)acetic acid] as the compound, how does the IC50 read?
A: > 1 µM

Q: For `O=C(O)CCc1ccc(Nc2nc(-c3ccc(Cl)s3)nc3c2CCC3)cc1` [Example 15, 3-[4-[[2-(5-Chloro-2-thienyl)-6,7-dihydro-5H-cyclopenta[d]pyrimidin-4-yl]amino]phenyl]propanoic acid], which IC50 is on record?
A: > 1 µM

Q: How did the IC50 turn out when `OCCc1ccc(Nc2cc(C3CC3)nc(-c3cccc(Cl)c3)n2)cc1` [Example 206, 2-(4-((2-(3-Chlorophenyl)-6-cyclopropylpyrimidin-4-yl)amino)phenyl)ethanol] was run?
A: < 1 µM

Q: For `NC(=O)Cc1ccc(Nc2cc(-c3cc(Cl)ccc3Cl)nc3c2CCC3)cc1` [Example 155, 2-(4-((2-(2,5-Dichlorophenyl)-6,7-dihydro-5H-cyclopenta[b]pyridin-4-yl)amino)phenyl)acetamide hydrochloride], which IC50 is on record?
A: > 1 µM

Q: `CCc1c(C)nc(-c2ccc(Cl)s2)nc1Nc1ccc(Cc2noc(=O)[nH]2)cc1` [Example 302, 3-[[4-[[2-(5-Chloro-2-thienyl)-5-ethyl-6-methyl-pyrimidin-4-yl]amino]phenyl]methyl]-4H-1,2,4-oxadiazol-5-one] was tested. Which IC50 did it give?
A: > 1 µM

Q: With `CCc1nc(Nc2ccc(CC(N)=O)cc2)nc(-c2cccc(Cl)c2)n1` [Example 57, 2-(4-(4-(3-chlorophenyl)-6-ethyl-1,3,5-triazin-2-ylamino)phenyl)acetamide] as the compound, how does the IC50 read?
A: < 1 µM

Q: For `O=C(O)c1ccc(Nc2nc(-c3cccc(Cl)c3)nc(C3CC3)n2)cc1` [Example 41, 4-((4-(3-chlorophenyl)-6-cyclopropyl-1,3,5-triazin-2-yl)amino)benzoic acid], which IC50 is on record?
A: < 1 µM

Q: How did the IC50 turn out when `Cc1ccc(Cc2nc(-c3cccc(Cl)c3)nc3c2CCC3)cc1` [Example 69, 2-(3-Chlorophenyl)-4-(4-methylbenzyl)-6,7-dihydro-5H-cyclopenta[d]pyrimidine] was run?
A: > 1 µM

Q: `O=C(O)Cc1ccc(Cc2cc(C(F)(F)F)nc(C3CCCC3)n2)cc1` [Example 229, 2-(4-((2-Cyclopentyl-6-(trifluoromethyl)pyrimidin-4-yl)methyl)phenyl)acetic acid] was tested. Which IC50 did it give?
A: > 1 µM

Q: For `CC(Oc1ccc(Nc2cc(-c3cccc(Cl)c3)nc3c2CCC3)cc1)C(N)=O` (stereo not shown) [Example 116, 2-(4-((2-(3-Chlorophenyl)-6,7-dihydro-5H-cyclopenta[b]pyridin-4-yl)amino)phenoxy)propanamide hydrochloride], which IC50 is on record?
A: > 1 µM

Q: With `NC(=O)Cc1ccc(Nc2cc(-c3ccco3)nc3c2CCC3)cc1` [Example 240, 2-(4-((2-(Furan-2-yl)-6,7-dihydro-5H-cyclopenta[b]pyridin-4-yl)amino)phenyl)acetamide hydrochloride] as the compound, how does the IC50 read?
A: > 1 µM

Q: For `OCCc1ccc(Nc2cc(-c3cccc(Cl)c3)nc3c2CCC3)cc1` [Example 6, 2-[4-[[2-(3-Chlorophenyl)-6,7-dihydro-5H-cyclopenta[b]pyridin-4-yl]amino]phenyl]ethanol], which IC50 is on record?
A: > 1 µM

Q: How did the IC50 turn out when `OCCc1ccc(Nc2cc(-c3ccc(Cl)cc3)nc3c2CCC3)cc1` [Example 149, 2-(4-((2-(4-Chlorophenyl)-6,7-dihydro-5H-cyclopenta[b]pyridin-4-yl)amino)phenyl)ethanol hydrochloride] was run?
A: > 1 µM

Q: For `OCC[C@H]1CC[C@H](Nc2cc(-c3cccc(Cl)c3)nc3c2CCC3)CC1` [Example 97, Trans-2-(4-((2-(3-chlorophenyl)-6,7-dihydro-5H-cyclopenta[b]pyridin-4-yl)amino)cyclohexyl)ethanol hydrochloride], which IC50 is on record?
A: > 1 µM

Q: How did the IC50 turn out when `O=S1(=O)CCCc2nc(-c3cccc(Cl)c3)nc(Cc3ccc(CCO)cc3)c21` [Example 278, 2-(3-chlorophenyl)-4-(4-(2-hydroxyethyl)benzyl)-7,8-dihydro-6H-thiopyrano[3,2-d]pyrimidine 5,5-dioxide] was run?
A: < 1 µM

Q: `NC(=O)Cc1ccc(Nc2cc(OC3CCCC3)nc3c2CCC3)cc1` [Example 256, 2-(4-((2-(Cyclopentyloxy)-6,7-dihydro-5H-cyclopenta[b]pyridin-4-yl)amino)phenyl)acetamide hydrochloride] was tested. Which IC50 did it give?
A: > 1 µM

Q: With `CCc1nc(Nc2ccc(C(=O)O)cc2)nc(-c2cccc(Cl)c2)n1` [Example 40, 4-((4-(3-chlorophenyl)-6-ethyl-1,3,5-triazin-2-yl)amino)benzoic acid] as the compound, how does the IC50 read?
A: < 1 µM

Q: Which IC50 does the source give for `NC(=O)Cc1ccc(Cc2cc(OC3CCCC3)nc3c2CCC3)cc1` [Example 131, 2-(4-((2-(Cyclopentyloxy)-6,7-dihydro-5H-cyclopenta[b]pyridin-4-yl)methyl)phenyl)acetamide hydrochloride] here?
A: > 1 µM

Q: Which IC50 does the source give for `OB1OCc2cc(Nc3nc(-c4cccc(Cl)c4)nc4c3CCC4)ccc21` [Example 294, 2-(3-Chlorophenyl)-N-(1-hydroxy-3H-2,1-benzoxaborol-5-yl)-6,7-dihydro-5H-cyclopenta[d]pyrimidin-4-amine] here?
A: > 1 µM

Q: For `OCCc1ccc(Nc2cc(-c3cc(Cl)cc(Cl)c3)nc3c2CCC3)cc1` [Example 158, 2-(4-((2-(3,5-Dichlorophenyl)-6,7-dihydro-5H-cyclopenta[b]pyridin-4-yl)amino)phenyl)ethanol hydrochloride], which IC50 is on record?
A: > 1 µM

Q: How did the IC50 turn out when `OCCc1ccc(Nc2cc(C3CC3)nc(-c3cccc(Cl)c3)n2)nc1` [Example 214] was run?
A: > 1 µM

Q: For `NC(=O)Cc1ccc(C(O)c2cc(-c3cccc(Cl)c3)nc3c2CCC3)cc1` (stereo not shown) [Example 262, 2-(4-((2-(3-Chlorophenyl)-6,7-dihydro-5H-cyclopenta[b]pyridin-4-yl)(hydroxy)methyl)phenyl)acetamide hydrochloride], which IC50 is on record?
A: > 1 µM

Q: For `Cc1nc(Nc2ccc(CC(=O)O)cc2)nc(-c2ccco2)n1` [Example 24, 2-(4-((4-(furan-2-yl)-6-methyl-1,3,5-triazin-2-yl)amino)phenyl)acetic acid], which IC50 is on record?
A: > 1 µM

Q: For `O=S1(=O)CCCc2nc(C3CCCC3)nc(Nc3ccc(CCO)cc3)c21` [Example 285, 2-Cyclopentyl-4-((4-(2-hydroxyethyl)phenyl)amino)-7,8-dihydro-6H-thiopyrano[3,2-d]pyrimidine 5,5-dioxide], which IC50 is on record?
A: < 1 µM

Q: How did the IC50 turn out when `Cc1cc(Nc2nc(-c3cccc(Cl)c3)nc3c2CCC3)ccc1CC#N` [Example 177, 2-(4-((2-(3-Chlorophenyl)-6,7-dihydro-5H-cyclopenta[d]pyrimidin-4-yl)amino)-2-methylphenyl)acetonitrile] was run?
A: > 1 µM

Q: For `Cc1cc(Nc2cc(-c3cccc(Cl)c3)nc3c2CCC3)ccc1CC(N)=O` [Example 111, 2-(4-((2-(3-Chlorophenyl)-6,7-dihydro-5H-cyclopenta[b]pyridin-4-yl)amino)-2-methylphenyl)acetamide hydrochloride], which IC50 is on record?
A: > 1 µM

Q: For `O=C(O)c1ccc(Nc2cc(-c3cccc(Cl)c3)nc3c2CCC3)cc1` [Example 5, 4-[[2-(3-Chlorophenyl)-6,7-dihydro-5H-cyclopenta[b]pyridin-4-yl]amino]benzoic acid], which IC50 is on record?
A: > 1 µM

Q: With `OCCc1ccc(Nc2cc(N3CCNCC3)nc3c2CCC3)cc1` [Example 238, 2-(4-((2-(Piperazin-1-yl)-6,7-dihydro-5H-cyclopenta[b]pyridin-4-yl)amino)phenyl)ethanol hydrochloride] as the compound, how does the IC50 read?
A: > 1 µM

Q: `COC(=O)Cc1ccc(Nc2cc(N3CCCC3)nc3c2CCC3)cc1` [Example 237, Methyl 2-(4-((2-(pyrrolidin-1-yl)-6,7-dihydro-5H-cyclopenta[b]pyridin-4-yl)amino)phenyl)acetate hydrochloride] was tested. Which IC50 did it give?
A: > 1 µM

Q: `OCCc1ccc(Cc2cc(C3CC3)nc(-c3cccc(Cl)c3)n2)cc1` [Example 210, 2-(4-((2-(3-Chlorophenyl)-6-cyclopropylpyrimidin-4-yl)methyl)phenyl)ethanol] was tested. Which IC50 did it give?
A: > 1 µM

Q: Which IC50 does the source give for `NC(=O)C(Cc1ccc(Nc2cc(-c3cccc(Cl)c3)nc3c2CCC3)cc1)C(N)=O` [Example 122, 2-(4-((2-(3-Chlorophenyl)-6,7-dihydro-5H-cyclopenta[b]pyridin-4-yl)amino)benzyl)malonamide hydrochloride] here?
A: > 1 µM

Q: Which IC50 does the source give for `OCCc1ccc(Nc2cc(-c3ccco3)nc3c2CCC3)cc1` [Example 239, 2-(4-((2-(furan-2-yl)-6,7-dihydro-5H-cyclopenta[b]pyridin-4-yl)amino)phenyl)ethanol hydrochloride] here?
A: > 1 µM
